Tests used:
[1] = molecular target: T1, Phe-176 mutant p53 protein (Homo sapiens, UniProt P04637, C176F); experiment: Band shift assay, KRC/Y cells; format: biochemical
T1 construct: as a source for endogenous p53 protein; endogenous in cells; host or cells: KRC/Y renal carcinoma cells (cell extract)
Procedure: (§1) The GST-p53 proteins were prepared as described (Selivanova et al., 1997). Band shift assays were performed in binding buffer containing 100 mM HEPES pH 7.5, 50 mM KCl , 1 mg/ml BSA, 0.1% Triton X-100, 2 mM MgCl2 and 1 mM DTT essentially as in (Selivanova et al., 1996).

[2] = molecular target: T2, GST-His-175 mutant p53 protein (Homo sapiens, UniProt P04637, R175H); experiment: Band shift assay; format: biochemical
T2 construct: made in house
Procedure: FIG. 7A Lane 1-3, GST-His-175 mutant p53 is unable to bind DNA. […] PAb421 antibody was added to all reaction mixtures. […] Monoclonal antibody PAb421 was added to the reaction mixtures in lanes 2-8; PAb1801 was, added to the reaction mixtures in lanes 9-15.
as §1
Substitution of arginin at position 175 causes a gross unfolding of the DNA binding core domain of p53.

[3] = tested on: HCT116 colon carcinoma cells that carry wild type p53; experiment: Western blot of p53 target genes p21 and MDM2; format: cell-based
[4] = tested on: H1299-His-175 cells; experiment: Western blot of p53 target genes p21 and MDM2; format: cell-based, human
[5] = tested on: SKOV-His-175 cells; experiment: p53-responsive EGFP reporter; format: cell-based, human
Source text: FIG. 9B, mutant p53-dependent activation of the wild-type p53-responsive EGFP reporter in PRIMA-1-treated SKOV-His-175 cells. […] FIG. 9C, MIRA-1 induced wild-type p53-responsive EGFP reporter in SKOV-His-175 cells.
The plasmids encoding the GST-human wild type p53 fusion protein and the GST-human mutant p53 proteins His 175 were described earlier (Selivanova et al., 1996). The p53-EGFP plasmid contains 13 synthetic p53 consensus DNA binding sites in front of the EGFP coding sequence. Transient transfections experiments were performed with Lipofectamine 2000 according to the manufacturer's recommendations (Invitrogen™ Life Technologies, Groningen, The Netherlands).
We also transiently transfected SKOV-His-175 cells with a p53-responsive EGFP reporter.

[6] = tested on: human tumor cell lines with different p53 status (p53 null, wild type p53, mutant p53); experiment: WST-1 growth suppression, series of tumor cell lines; format: cell-based
Source text: In addition, mouse p53 null J3D T-cell lymphoma line was used.

[7] = tested on: p53-null Saos-2 cells; experiment: FACS analysis of apoptosis (sub-G1, propidium iodide); format: cell-based, human; parameters: dose or concentration left out as unconfirmed
Procedure: (§2) Induction of apoptosis was determined by FACS analysis of ethanol fixed cells stained with propidium iodide (PI) as percentage of a sub-G1 population. […] The percentage of dead cells in non-treated cultures and in controls treated with caspase inhibitors only was subtracted. […] Hoechst staining was used to stain cell nuclei. […] The percentage of apoptotic cells was measured by FACS analysis as it was described in Figure.
(§3) Cells were placed on 12-well plate at a density of 30000/cm^2 and treated with compounds. After 48 h incubation cells were harvested by trypsinization, fixed with 70% ethanol, treated with RNase A (0.25 mg/ml) and stained with propidium iodide (0.02 mg/ml). Samples were analyzed on a Becton Dickinson FACScan. Data were analyzed by the CellQuest software, version 3.2.1.

[8] = tested on: Saos-2-His-273 cells; experiment: as above; format: cell-based, human; conditions: for p53 dependence of apoptosis induction: cells grown in presence or absence of doxycyclin; for time after treatment at which apoptosis/cell death is evident: data not shown
Procedure: as §2, §3
Induction of cell death was determined by FACS analysis of ethanol-fixed cells stained with propidium iodide (PI) as percentage of sub-G1 population.

[9] = tested on: Saos-2 cells lacking p53; experiment: Colony formation assay; format: cell-based, human; conditions: 5 µM of compound; colonies after 14 days
Source text: (§4) Colonies were stained with Giemsa and counted 14 days after seeding.
(§5) The cells were Giemsa stained and scored for the appearance of colonies after 14 days.

[10] = tested on: Saos-2-His-273 cells; experiment: Colony formation assay; format: cell-based, human
Source text: as §4, §5

[11] = tested on: p53-responsive PG-luciferase reporter in Saos-2-His-273 cells; experiment: PG-luciferase reporter assay; format: cell-based, human
Procedure: Transactivation assays using p53-responsive promoter constructs linked to the luciferase reporter gene (PG-luc) were performed by the Dual Luciferase Reporter Assay System (Promega) according to the manufacturer. […] A luciferase activity was assayed 1; 3.5 and 15 hours post-treatment.

[12] = molecular target: T3, endogenous Trp-282 mutant p53 (Homo sapiens, UniProt P04637, R282W); experiment: Band shift assay, BL-60 cell extracts; format: biochemical; conditions: cell extracts from Burkitt lymphoma BL-60 cells
T3 construct: endogenous Trp-282 mutant p53 in cell extracts from Burkitt lymphoma BL-60 cells; endogenous in cells; host or cells: Burkitt lymphoma BL-60 cells (cell extract)

[13] = tested on: Saos-2-His-273 cells; experiment: Anti-tumor activity, xenograft in SCID mice; format: in vivo; conditions: after 59 days
Procedure: SCID mice were injected with Saos-2-His-273 cells. […] Tumor volumes were measured once in three days for two months.
(§6) All animal studies were approved by the local animal ethical committee and animal care was in accordance with institutional guidelines. For toxicity assessment, 12 SCID mice (average weight 25 g) were divided in 4 groups. […] Control animals were injected with PBS. We measured weights of the mice for 1 month after the last injection. […] After 3 days the mice were divided into 4 groups. […] Injections were performed twice daily for 3 days. Tumor volume was measured during 2 months.
(§7) In the untreated control group, the average tumor volume after 59 days was 555.7±284 mm^3 (means±SE, n=3).

[14] = Toxicity assessment in SCID mice; format: in vivo
Procedure: as §6, §7

[15] = tested on: A431 cells that carry endogenous His-273 mutant p53; experiment: p53-responsive lacZ reporter; format: cell-based; conditions: 50 μM for 20 hours
[16] = absence of mutant p53 expression
[17] = cells expressing mutant p53, PRIMA-1 25 μM, MIRA-1 10 μM

With CCC(=O)OCN1C(=O)C=CC1=O [MIRA-1] as the molecule, how does the “restoration of specific DNA binding” value [1] read?
Its value is “not capable of restoring”.

And the “restoration of specific DNA binding” value [2]?
The value was “able to restore”.

And the “MDM2 and p21 protein levels” value [3]?
Its value is “did not cause any significant changes”.

And the “induction of MDM2 and p21” value [4, 16]?
The value was “did not cause any induction”.

What about the “induction of MDM2 and p21” value [4, 17] of the same molecule?
Its value is “solid induction of both MDM2 and p21”.

And the EGFP reporter expression ([5]; 5μM for 24 hours)?
The EGFP reporter expression was “induction of EGFP was also observed”.

What about the “growth suppression of mutant p53-expressing cells versus p53 null and wild type p53 cells” value [6] of the same molecule?
Its value is “more efficiently”.

What about the induction of apoptosis ([7]; 48 hours) of the same molecule?
The induction of apoptosis was “not in p53-null Saos-2 cells”.

And the induction of apoptosis ([8]; 48 hours, no doxycycline)?
Its induction of apoptosis is “apoptosis was induced”.

What about the “p53 dependence of apoptosis induction” value [8] of the same molecule?
The value was “occurred only in the presence of p53 expression”.

What about the “time after treatment at which apoptosis/cell death is evident” value [8] of the same molecule?
The value was 6 to 12 h.

What about the “inhibition of colony formation” value [9] of the same molecule?
Its value is 48%.

What about the “number of colonies, % of untreated control” value ([10]; 5 µM of compound, colonies after 14 days) of the same molecule?
The value was 15%.

What about the “stimulation of luciferase expression” value ([11]; after 3.5 hours, 10 μM) of the same molecule?
Its value is 2 fold.

And the “restoration of sequence-specific DNA binding” value [12]?
The value was “able to restore”.

Which results are given for O=C1C2CCN(CC2)C1(CO)CO [PRIMA-1, 2,2-bis(hydroxymethyl)-1-azabicyclo[2,2,2]octan-3-one]?
average tumor volume ([13]; 20 mg/kg i.v. twice a day for three days): 53±48.5 mm^3; average tumor volume ([13]; intratumor 20 mg/kg twice a day for three days): 5.3±2.7 mm^3; average tumor volume ([13]; intravenous 100 mg/kg twice a day for three days): 11.7±8 mm^3; MDM2 and p21 protein levels [3]: did not cause any significant changes; average weight of mice ([14]; 100 mg/kg i.v., after one month of observation, means±SE): 20 ± 0.2 g; changes in behavior or weight ([14]; intravenous injections, 1, 10 and 100 mg/kg daily for 5 days): did not cause any obvious changes in behavior or weight; induction of MDM2 and p21 [4, 16]: did not cause any induction; induction of MDM2 and p21 [4, 17]: solid induction of both MDM2 and p21; lacZ reporter induction [15]: appearance of lacZ-positive cells; EGFP reporter expression ([5]; cells expressing mutant p53, 24 hours): strong induction of EGFP expression; EGFP reporter expression ([5]; doxycycline (p53 off), 24 hours): did not express detectable levels of EGFP; growth suppression of mutant p53-expressing cells versus p53 null and wild type p53 cells [6]: more efficiently; induction of apoptosis ([7]; 50, 75 and […], no p53 expression): much less efficient; induction of apoptosis ([8]; 50, 75 and 125 µM, mutant p53 expressed): apoptosis was induced; p53 dependence of apoptosis induction [8]: occurred only in the presence of p53 expression; time after treatment at which apoptosis/cell death is evident [8]: 48 h; doses inhibitory to colony formation in a mutant p53-dependent manner ([10]; Saos-2-His-273 vs Saos-2): 50 to 100 µM; induction of luciferase expression ([11]; after 15 hours, 50 μM): 2 fold

Source: patent US7348330B2, “1-azabicyclo [2,2,2] octan-3-one derivatives” (Aprea AB, priority 2000, dated 2008)
